Results as given in US7160874B2, “Phenylalanine derivatives” (Ajinomoto Co., Inc., priority 1999, dated 2007).

Legend:
integrin α4β7 = target: T1, integrin α4β7 (Homo sapiens, UniProt P13612+P26010); assay: VCAM antagonistic activity (VCAM-1/α4β7 binding assay); assay type: cell-based; details: RPMI-8866 cells binding to VCAM-1; read-out: VCAM antagonistic activity (IC50) α4β7
T1 construct: lymphoma cell strain RPMI-8866 of human B cells, known to express integrin α4β7; endogenous in cells; host or cells: RPMI-8866 (human B lymphoma cell line)
T1 sequence (P13612 34-1032): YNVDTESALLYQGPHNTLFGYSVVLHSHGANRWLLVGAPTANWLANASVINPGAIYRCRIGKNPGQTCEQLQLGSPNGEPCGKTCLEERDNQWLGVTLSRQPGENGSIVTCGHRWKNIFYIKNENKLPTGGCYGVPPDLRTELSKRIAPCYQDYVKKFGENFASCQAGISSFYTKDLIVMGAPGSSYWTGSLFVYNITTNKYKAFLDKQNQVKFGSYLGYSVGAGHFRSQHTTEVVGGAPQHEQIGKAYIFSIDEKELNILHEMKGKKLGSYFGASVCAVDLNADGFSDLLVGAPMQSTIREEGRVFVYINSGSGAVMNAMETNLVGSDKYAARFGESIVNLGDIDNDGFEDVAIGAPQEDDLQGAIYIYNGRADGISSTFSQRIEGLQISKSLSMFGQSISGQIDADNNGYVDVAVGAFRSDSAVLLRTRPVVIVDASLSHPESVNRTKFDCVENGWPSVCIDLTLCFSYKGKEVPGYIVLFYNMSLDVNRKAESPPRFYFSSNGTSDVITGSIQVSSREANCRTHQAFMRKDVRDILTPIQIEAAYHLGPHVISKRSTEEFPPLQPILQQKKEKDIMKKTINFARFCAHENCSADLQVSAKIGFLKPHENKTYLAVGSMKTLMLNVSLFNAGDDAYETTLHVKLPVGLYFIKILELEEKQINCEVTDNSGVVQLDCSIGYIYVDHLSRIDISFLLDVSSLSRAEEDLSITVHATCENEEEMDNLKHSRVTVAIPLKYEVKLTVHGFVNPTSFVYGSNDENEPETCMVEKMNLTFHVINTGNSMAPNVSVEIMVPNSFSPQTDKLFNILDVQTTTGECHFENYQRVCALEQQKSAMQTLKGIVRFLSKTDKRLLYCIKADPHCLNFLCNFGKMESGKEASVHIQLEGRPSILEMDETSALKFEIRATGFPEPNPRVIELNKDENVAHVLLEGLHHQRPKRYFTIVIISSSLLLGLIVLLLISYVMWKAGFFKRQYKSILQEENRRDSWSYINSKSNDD
T1 sequence (P26010 20-798): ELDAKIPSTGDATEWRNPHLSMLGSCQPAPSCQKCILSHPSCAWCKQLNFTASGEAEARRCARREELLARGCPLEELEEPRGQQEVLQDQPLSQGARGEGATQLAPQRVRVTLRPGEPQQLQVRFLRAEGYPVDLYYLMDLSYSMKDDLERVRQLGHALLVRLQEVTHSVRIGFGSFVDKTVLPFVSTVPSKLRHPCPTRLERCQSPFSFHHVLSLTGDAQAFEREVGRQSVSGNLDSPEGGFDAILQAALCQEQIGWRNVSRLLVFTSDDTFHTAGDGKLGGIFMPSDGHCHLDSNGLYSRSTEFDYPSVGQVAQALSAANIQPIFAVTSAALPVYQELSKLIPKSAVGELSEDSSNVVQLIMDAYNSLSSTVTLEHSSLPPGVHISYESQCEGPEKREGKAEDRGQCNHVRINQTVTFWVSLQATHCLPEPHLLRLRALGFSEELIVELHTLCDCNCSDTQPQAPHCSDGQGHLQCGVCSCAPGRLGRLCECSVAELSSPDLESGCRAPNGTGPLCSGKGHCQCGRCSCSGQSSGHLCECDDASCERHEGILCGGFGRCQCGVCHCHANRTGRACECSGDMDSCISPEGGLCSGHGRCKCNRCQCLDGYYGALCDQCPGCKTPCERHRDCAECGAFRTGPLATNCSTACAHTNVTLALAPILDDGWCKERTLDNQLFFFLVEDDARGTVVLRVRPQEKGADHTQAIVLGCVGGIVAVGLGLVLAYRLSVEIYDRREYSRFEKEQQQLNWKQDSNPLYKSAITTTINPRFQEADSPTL
Summary of the method: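 Calcein-AM-labelled human B-lymphoma RPMI-8866 cells bound to plate-coated recombinant human VCAM-1 in HEPES/DMEM/0.1% BSA with 4 mM MnCl2, with compound, 30 min at room temperature. Unbound cells removed by shaking; bound-cell fluorescence (ex 485/em 535 nm) versus compound-free wells gave IC50, binned.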

integrin α4β1 = target: T2, integrin α4β1 (Homo sapiens, UniProt P05556+P13612); assay: VCAM antagonist activity (VCAM-1/α4β1 binding assay); assay type: cell-based; details: Jurkat cells binding to VCAM-1; read-out: VCAM antagonistic activity (IC50) α4β1
T2 construct: cell strain Jurkat (ATCC TIB-152) of human T cells, known to express integrin α4β1; host or cells: Jurkat (human T cell line)
Summary of the method: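 Plates coated overnight at 4° C with recombinant human VCAM-1 (500 ng/ml, pH 9.6) and blocked. Calcein-AM-labelled Jurkat cells (α4β1) added with compound in HEPES/DMEM/0.1% BSA, 30 min at room temperature; unbound cells shaken off, bound fluorescence read at 485/535 nm. IC50 from binding relative to compound-free wells.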

T2 sequence (P05556 21-798, one chain of several): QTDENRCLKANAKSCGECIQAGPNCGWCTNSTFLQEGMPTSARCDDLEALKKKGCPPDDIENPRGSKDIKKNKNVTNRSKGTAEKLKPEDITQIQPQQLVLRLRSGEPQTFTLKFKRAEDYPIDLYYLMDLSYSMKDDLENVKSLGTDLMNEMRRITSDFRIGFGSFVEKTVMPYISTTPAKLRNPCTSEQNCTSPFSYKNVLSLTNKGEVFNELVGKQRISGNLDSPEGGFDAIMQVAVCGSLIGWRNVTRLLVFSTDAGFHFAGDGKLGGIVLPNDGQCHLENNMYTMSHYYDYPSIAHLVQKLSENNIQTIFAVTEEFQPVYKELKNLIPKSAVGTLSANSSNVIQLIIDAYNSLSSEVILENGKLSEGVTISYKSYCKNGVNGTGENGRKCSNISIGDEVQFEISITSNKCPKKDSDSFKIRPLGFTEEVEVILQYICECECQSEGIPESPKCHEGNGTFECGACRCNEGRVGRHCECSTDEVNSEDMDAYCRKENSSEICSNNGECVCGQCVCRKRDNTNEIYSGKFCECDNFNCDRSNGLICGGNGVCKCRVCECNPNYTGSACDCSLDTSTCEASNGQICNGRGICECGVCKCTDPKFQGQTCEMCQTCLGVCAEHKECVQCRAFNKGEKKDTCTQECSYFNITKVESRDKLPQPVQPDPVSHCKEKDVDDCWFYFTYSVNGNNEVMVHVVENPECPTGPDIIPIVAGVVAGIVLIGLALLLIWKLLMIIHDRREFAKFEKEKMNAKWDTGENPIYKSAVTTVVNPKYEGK

| Compound | IC50 (integrin α4β7) | IC50 (integrin α4β1) |
| --- | --- | --- |
| CN(C)C(=O)C1(C(=O)N[C@@H](Cc2ccc(OCc3c(Cl)cccc3Cl)cc2)C(=O)O)CC1 [Example 21] | 100 to 2000 nM | 2000 to 10000 nM |
| CC1(C)CC2CC(C)(CN2C(=O)C2(C(=O)NC(Cc3ccc(OCc4c(Cl)cccc4Cl)cc3)C(=O)O)CCOCC2)C1 (centres unmarked) [Example 472] | 100 to 2000 nM | 2000 to 10000 nM |
| CN(C)C(=O)C(C)(C)C(=O)N[C@@H](Cc1ccc(OCc2c(Cl)cccc2Cl)cc1)C(=O)O [Example 2, N-[2-(dimethylaminocarbonyl)-2-methyl-propanoyl]-O-(2,6-dichlorobenzyl)-L-tyrosine] | 20 to 100 nM | 100 to 2000 nM |
| CCC(CC)(C(=O)N[C@@H](Cc1ccc(NC(=O)c2nc(S(C)(=O)=O)ncc2Cl)cc1)C(=O)O)C(=O)N1CCCC1 [Example 479, N-[2-(pyrrolidine-1-ylcarbonyl)-2-ethyl-butanoyl)-4-({[5-chloro-2-(methylsulfonyl)pyrimidine-4-yl]carbonyl}-amino)-L-phenyl-alanine] | < 20 nM | 20 to 100 nM |
| CCC(CC)(C(=O)N[C@@H](Cc1ccc(NC(=O)c2cc(F)c(F)cc2Cl)cc1)C(=O)O)C(=O)N1CCCC1 [Example 95] | < 20 nM | 20 to 100 nM |
| CC(C)(C(=O)N[C@@H](Cc1ccc(OCc2c(Cl)cccc2Cl)cc1)C(=O)O)C(=O)N1CCCC1 [Example 33] | 20 to 100 nM | 100 to 2000 nM |
| O=C(O)[C@H](Cc1ccc(OCc2c(Cl)cccc2Cl)cc1)NC(=O)C1(C(=O)N2CCN(c3ccc(O)cc3)CC2)CCCC1 [Example 9] | 100 to 2000 nM | 100 to 2000 nM |
| CCC(CC)(C(=O)N[C@@H](Cc1ccc(NC(=O)c2snnc2-c2ccccc2)cc1)C(=O)O)C(=O)N1CCCC1 [Example 93] | < 20 nM | 100 to 2000 nM |
| CCC(CC)(C(=O)NC(Cc1ccc(OCc2c(Cl)cccc2Cl)cc1)C(=O)O)C(=O)N1CCCC(O)C1 (mixture of isomers) [Example 48] | 20 to 100 nM | 100 to 2000 nM |
| CN(C)C(=O)C1(C(=O)N[C@@H](Cc2ccc(NC(=O)c3cc(F)c(F)cc3Cl)cc2)C(=O)O)CC1 [Example 86] | 20 to 100 nM | 100 to 2000 nM |
| CCC(CC)(C(=O)Nc1ccc(O)cc1)C(=O)N[C@@H](Cc1ccc(OCc2c(Cl)cccc2Cl)cc1)C(=O)O [Example 5] | 100 to 2000 nM | 100 to 2000 nM |
| CCC(CC)(C(=O)NC(Cc1ccc(OCc2c(Cl)cccc2Cl)cc1)C(=O)O)C(=O)N1CCC(N)C1 (mixture of isomers) [Example 47] | < 20 nM | 100 to 2000 nM |
| CCC(CC)(C(=O)N[C@@H](Cc1ccc(OCc2c(Cl)cccc2Cl)cc1)C(=O)O)C(=O)N1CCC[C@@H](O)C1 [Example 77] | < 20 nM | 100 to 2000 nM |
| CCC(CC)(C(=O)N[C@@H](Cc1ccc(OCc2c(Cl)cccc2Cl)cc1)C(=O)O)C(=O)N1CCSCC1 [Example 36] | 20 to 100 nM | 100 to 2000 nM |
| CCC(CC)(C(=O)N[C@@H](Cc1ccc(OCc2c(Cl)cccc2Cl)cc1)C(=O)O)C(=O)N1CCCC1 [Example 32] | 20 to 100 nM | 100 to 2000 nM |
| CCC(CC)(C(=O)N[C@@H](Cc1ccc(NC(=O)c2c(Cl)cccc2Cl)cc1)C(=O)O)C(=O)N1CCCC1 [Example 91, N-[2-(pyrrolidine-1-ylcarbonyl)-2-ethyl-butanoyl]-4-{[(2,6-dichlorophenyl)carbonyl]amino}-L-phenylalanine] | < 20 nM | < 20 nM |

| Compound | IC50 (integrin α4β7) | IC50 (integrin α4β1) |
| --- | --- | --- |
| CCC(CC)(C(=O)N[C@@H](Cc1ccc(OCc2c(Cl)cccc2Cl)cc1)C(=O)O)C(=O)N1CC[C@@H](N)C1 [Example 76] | < 20 nM | 100 to 2000 nM |
| CCC(CC)(C(=O)N[C@@H](Cc1ccc(NC(=O)c2nc(NCc3ccc(OC)cc3)ncc2Cl)cc1)C(=O)O)C(=O)N1CCCC1 [Example 480, N-[2-(pyrrolidine-1-ylcarbonyl)-2-ethyl-butanoyl]-4-[({5-chloro-2-[(4-methoxybenzyl)amino]pyrimidine-4-yl}carbonyl)amino]-L-phenylalanine] | < 20 nM | 20 to 100 nM |
| CN(C)C(=O)C1(C(=O)N[C@@H](Cc2ccc(OCc3c(Cl)cccc3Cl)cc2)C(=O)O)CCCC1 [Example 8] | 100 to 2000 nM | 100 to 2000 nM |
| CCC(CC)(C(=O)N[C@@H](Cc1ccc(OCc2c(Cl)cccc2Cl)cc1)C(=O)O)C(=O)N1CCC1 [Example 78] | < 20 nM | 100 to 2000 nM |
| CCC(CC)(C(=O)N[C@@H](Cc1ccc(OCc2c(Cl)cccc2Cl)cc1)C(=O)O)C(=O)N1CCN(C=O)CC1 [Example 45] | 20 to 100 nM | 100 to 2000 nM |
| CCC(CC)(C(=O)N[C@@H](Cc1ccc(OCc2c(Cl)cccc2Cl)cc1)C(=O)O)C(=O)N(C)C [Example 3] | < 20 nM | 100 to 2000 nM |
| CCC(CC)(C(=O)N[C@@H](Cc1ccc(OCc2c(Cl)cccc2Cl)cc1)C(=O)O)C(=O)N1CC[C@@H](O)C1 [Example 35] | < 20 nM | 20 to 100 nM |
| CCC(CC)(C(=O)N[C@@H](Cc1ccc(OCc2c(Cl)cccc2Cl)cc1)C(=O)O)C(=O)N1C[C@@H](O)[C@H](O)C1 (relative stereo) [Example 83, N-(2-{[(trans-3,4-dihydroxypyrrolidine)-1-yl]carbonyl}-2-ethyl-butanoyl)-O-(2,6-dichlorobenzyl)-L-tyrosine] | < 20 nM | 20 to 100 nM |
| O=CN1CCN(C(=O)C2(C(=O)N[C@@H](Cc3ccc(OCc4c(Cl)cccc4Cl)cc3)C(=O)O)CCC2)CC1 [Example 463] | 100 to 2000 nM | 100 to 2000 nM |
| CN(C)C(=O)C1(C(=O)N[C@@H](Cc2ccc(OCc3c(Cl)cccc3Cl)cc2)C(=O)O)CCOCC1 [Example 468] | < 20 nM | 100 to 2000 nM |
| CN(C)C(=O)C1(C(=O)N[C@@H](Cc2ccc(OCc3c(Cl)cccc3Cl)cc2)C(=O)O)CCC1 [Example 29] | 100 to 2000 nM | 100 to 2000 nM |
| CCC(CC)(C(=O)N[C@@H](Cc1ccc(-n2c(=O)c3ccccc3n(CC(=O)OC)c2=O)cc1)C(=O)O)C(=O)N1CCCC1 [Example 103] | 20 to 100 nM | 100 to 2000 nM |
| O=C(O)[C@H](Cc1ccc(OCc2c(Cl)cccc2Cl)cc1)NC(=O)C1(C(=O)N2CCCC2)CCOCC1 [Example 58] | 100 to 2000 nM | 100 to 2000 nM |
| CCC(CC)(C(=O)N[C@@H](Cc1ccc(NC(=O)c2ccccc2[N+](=O)[O-])cc1)C(=O)O)C(=O)N1CCCC1 [Example 97] | < 20 nM | 20 to 100 nM |
| CCC(CC)(C(=O)N[C@@H](Cc1ccc(OCc2c(Cl)cccc2Cl)cc1)C(=O)O)C(=O)N(C)CCN(C)C [Example 40] | 20 to 100 nM | 100 to 2000 nM |
